Experimental data reported in ChEMBL document CHEMBL1201862, “PubChem BioAssay data set” (2004).
Activity calls are given as the source filed them.

Key:
[1] = biological target: T1, Fatty acid synthase (Homo sapiens, UniProt P49327); test: FAS thioesterase domain inhibitors, dose response, biochemical, endpoint fluorescence intensity, uHTS hits (AID 624327); type: functional;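 note: fluorescence from hydrolysis of an O-methyl fluorescein acyl ester substrate by the enzyme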
[2] = biological target: T1, Fatty acid synthase; test: FAS thioesterase domain inhibitors, dose response, biochemical, kinetic fluorescence intensity (AID 624326); type: functional;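 note: rate of fluorescence rise from hydrolysis of a fluorogenic O-methyl fluorescein ester substrate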
[3] = biological target: Disintegrin and metalloproteinase domain-containing protein 17 (Homo sapiens, UniProt P78536); test: exosite inhibitors of ADAM17, dose response, biochemical (AID 743260)
Chain of Disintegrin and metalloproteinase domain-containing protein 17 (P78536 whole entry, the tested form may be a part): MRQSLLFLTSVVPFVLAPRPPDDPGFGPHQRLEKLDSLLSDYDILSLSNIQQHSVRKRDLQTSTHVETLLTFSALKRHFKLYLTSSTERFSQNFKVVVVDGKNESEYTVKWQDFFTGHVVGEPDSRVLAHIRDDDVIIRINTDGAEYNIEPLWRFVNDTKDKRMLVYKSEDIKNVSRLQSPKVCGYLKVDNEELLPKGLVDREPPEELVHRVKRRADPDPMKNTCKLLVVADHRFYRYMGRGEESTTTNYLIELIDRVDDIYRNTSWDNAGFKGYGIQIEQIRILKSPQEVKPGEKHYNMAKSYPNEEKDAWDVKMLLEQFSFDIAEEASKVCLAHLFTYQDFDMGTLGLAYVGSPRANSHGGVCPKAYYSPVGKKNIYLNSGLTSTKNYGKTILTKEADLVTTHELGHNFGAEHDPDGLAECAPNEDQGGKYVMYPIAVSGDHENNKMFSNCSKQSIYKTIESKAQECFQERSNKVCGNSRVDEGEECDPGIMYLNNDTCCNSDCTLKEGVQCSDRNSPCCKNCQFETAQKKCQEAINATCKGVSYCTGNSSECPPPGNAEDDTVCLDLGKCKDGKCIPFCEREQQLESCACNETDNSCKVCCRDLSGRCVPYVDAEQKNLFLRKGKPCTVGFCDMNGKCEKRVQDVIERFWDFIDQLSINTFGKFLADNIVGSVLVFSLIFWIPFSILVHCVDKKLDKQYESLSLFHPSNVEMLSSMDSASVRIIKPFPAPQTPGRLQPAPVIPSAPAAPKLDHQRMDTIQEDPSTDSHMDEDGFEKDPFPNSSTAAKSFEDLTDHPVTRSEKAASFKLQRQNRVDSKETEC

[4] = biological target: T2, Mannose-6-phosphate isomerase (Homo sapiens, UniProt P34949); test: human PMI inhibitors, high substrate, primary screen, biochemical, fluorescence intensity, high mannose 6-phosphate (AID 1220)
T2 sequence (P34949 whole entry): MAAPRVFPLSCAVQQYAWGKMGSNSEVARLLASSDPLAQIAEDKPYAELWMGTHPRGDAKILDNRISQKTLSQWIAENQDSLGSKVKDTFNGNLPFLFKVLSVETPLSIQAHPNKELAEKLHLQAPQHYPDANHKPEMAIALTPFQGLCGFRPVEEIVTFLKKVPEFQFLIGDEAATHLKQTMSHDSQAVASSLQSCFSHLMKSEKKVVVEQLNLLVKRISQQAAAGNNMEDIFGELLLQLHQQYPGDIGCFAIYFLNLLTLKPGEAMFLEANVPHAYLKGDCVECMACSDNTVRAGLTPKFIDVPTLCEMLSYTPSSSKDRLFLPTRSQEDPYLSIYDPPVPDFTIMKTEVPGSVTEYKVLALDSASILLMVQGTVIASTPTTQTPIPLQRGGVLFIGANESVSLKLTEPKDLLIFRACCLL

[5] = P. falciparum 3D7-ScDHODH growth inhibitors, dose response, SYBR Green, dry powder samples (AID 1159570); type: functional, cell-based;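 note: parasite growth measured after 72 hours of compound exposure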
[6] = HepG2 cell cytotoxicity, dose response, cytotoxicity control, plate reader, dry powder samples (AID 1159569); type: functional, cell-based;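 note: inhibitor potency with signal falling toward the positive control level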
[7] = P. falciparum Dd2 growth inhibitors, dose response, SYBR Green, cherry-picked samples (AID 1159567); type: functional, cell-based
[8] = P. falciparum Dd2 growth inhibitors, dose response, SYBR Green, dry powder samples (AID 1159566); type: functional, cell-based;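 note: potency for growth inhibition with lower SYBR green DNA signal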
[9] = P. falciparum ATP4 D1247Y mutant growth inhibitors, dose response, NITD609-resistant line, SYBR Green, dry powder (AID 1159571); type: functional, cell-based;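 note: parasites synchronized at ring stage by sorbitol before testing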
[10] = biological target: T3, Endoribonuclease toxin MazF (Escherichia coli K-12, UniProt P0AE70); test: MazF toxin RNase activators, dose response, biochemical, fluorescence, single-stranded RNA substrate, uHTS hits (AID 588481); type: functional
T3 sequence (P0AE70 whole entry): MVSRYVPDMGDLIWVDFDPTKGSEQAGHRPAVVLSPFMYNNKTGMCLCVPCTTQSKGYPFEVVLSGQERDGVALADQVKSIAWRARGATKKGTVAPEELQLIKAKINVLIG

[11] = biological target: T3, Endoribonuclease toxin MazF; test: fluorescent RNA oligo signal without MazF, dose response, counter-screen for MazEF activator project, biochemical, fluorescence, single-stranded RNase substrate (AID 588502); type: functional
[12] = ADAM10 protease inhibitors, dose response, selectivity assay for ADAM17 exosite inhibitor project, biochemical, FRET peptide substrate, recombinant human ADAM10 (AID 743259);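 note: ADAM10 enzyme cleaving a FRET peptide substrate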
[13] = T. cruzi growth inhibition in host cells, dose response, cell-based, plate reader, dry powder, set 2 (AID 652275); type: functional
[14] = test system: Streptococcus sp. 'group A'; test: growth inhibition of control SK(-) GAS strain, dose response, counter-screen for streptokinase expression inhibitor project, luminescence, kanamycin, BacTiterGlo, confirmation (AID 1900); type: functional, organism-based
[15] = test system: BJ; test: cytotoxicity toward BJ-TERT fibroblasts, dose response, cell-based, RAS-independent, luminescence (AID 1933); type: functional; conditions: Homo sapiens
[16] = test system: BJ; test: cells; type: functional, cell-based; conditions: Homo sapiens
[17] = test system: BJ; test: cytotoxicity toward BJ-TERT-LT-ST fibroblasts, dose response, cell-based, RAS-independent, luminescence (AID 1935); type: functional; conditions: Homo sapiens;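 note: BJ fibroblasts immortalized with TERT plus LT and ST oncogenes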
[18] = cytotoxicity toward DRD oncogenic fibroblasts, dose response, cell-based, non-viral oncogenic, luminescence (AID 1934); type: functional; conditions: Homo sapiens
[19] = test system: Streptococcus; test: Group A Streptococcus viability loss, dose response, counter-screen for streptokinase expression inhibitor project, luminescence, BacTiterGlo (AID 1915); type: functional, organism-based;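 note: potency for reduction of bacterial viability or growth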
[20] = test system: BJ; test: cytotoxicity toward Ras-transformed BJeLR fibroblasts, dose response, cell-based, alamar blue fluorescence, cherrypicked samples (AID 2631); type: functional; conditions: Homo sapiens;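 note: confirmatory dose-response assay in RAS-dependent BJ fibroblasts engineered with TERT, LT and ST, with cytotoxicity read by fluorescence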
[21] = A cytotoxicity screen of small molecule inhibitors of the PhoP region in Salmonella typhi identified in the primary screen. [Related pubchem assays: 1850, 1864, 1985 ]; type: functional
[22] = P. falciparum late gametocyte killing, dose response, luminescence (AID 1117278); type: functional, cell-based;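 note: gametocytes exposed to compound for 24 hours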
[23] = Jurkat T cell cytotoxicity, dose response, cytotoxicity control for P. falciparum gametocyte viability project, luminescence (AID 1117277); type: functional, cell-based;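 note: potency reflects loss of cellular ATP meaning fewer viable cells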
[24] = biological target: Glucose-6-phosphate 1-dehydrogenase (Homo sapiens, UniProt P11413); test: human G6PD enzyme inhibitors, dose response, selectivity assay for P. falciparum G6PD inhibitor project, biochemical, fluorescence (AID 504792); type: functional
Chain of Glucose-6-phosphate 1-dehydrogenase (P11413 whole entry): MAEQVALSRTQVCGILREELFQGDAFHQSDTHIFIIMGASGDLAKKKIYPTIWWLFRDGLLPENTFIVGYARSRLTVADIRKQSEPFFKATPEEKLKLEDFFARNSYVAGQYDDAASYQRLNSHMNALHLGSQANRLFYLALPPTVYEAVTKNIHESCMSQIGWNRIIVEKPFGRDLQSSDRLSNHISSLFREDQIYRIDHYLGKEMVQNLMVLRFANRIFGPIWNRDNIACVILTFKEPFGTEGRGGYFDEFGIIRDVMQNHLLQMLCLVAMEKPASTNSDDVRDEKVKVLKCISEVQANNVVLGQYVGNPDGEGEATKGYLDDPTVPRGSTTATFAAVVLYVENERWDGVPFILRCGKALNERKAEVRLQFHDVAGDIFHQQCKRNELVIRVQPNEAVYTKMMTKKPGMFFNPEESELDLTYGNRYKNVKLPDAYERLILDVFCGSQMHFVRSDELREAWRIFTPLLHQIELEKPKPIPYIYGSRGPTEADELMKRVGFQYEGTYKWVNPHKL

[25] = biological target: T4, Polyadenylate-binding protein 1 (Homo sapiens, UniProt P11940); test: PABP1 MLLE–PAM2 interaction inhibitors, dose response, miRNA deadenylation inhibitor project, biochemical, fluorescence polarization, Cy5-PAM2 peptide, secondary (AID 602260); type: functional; conditions: read-out: IC50_Mean
T4 sequence (P11940 whole entry): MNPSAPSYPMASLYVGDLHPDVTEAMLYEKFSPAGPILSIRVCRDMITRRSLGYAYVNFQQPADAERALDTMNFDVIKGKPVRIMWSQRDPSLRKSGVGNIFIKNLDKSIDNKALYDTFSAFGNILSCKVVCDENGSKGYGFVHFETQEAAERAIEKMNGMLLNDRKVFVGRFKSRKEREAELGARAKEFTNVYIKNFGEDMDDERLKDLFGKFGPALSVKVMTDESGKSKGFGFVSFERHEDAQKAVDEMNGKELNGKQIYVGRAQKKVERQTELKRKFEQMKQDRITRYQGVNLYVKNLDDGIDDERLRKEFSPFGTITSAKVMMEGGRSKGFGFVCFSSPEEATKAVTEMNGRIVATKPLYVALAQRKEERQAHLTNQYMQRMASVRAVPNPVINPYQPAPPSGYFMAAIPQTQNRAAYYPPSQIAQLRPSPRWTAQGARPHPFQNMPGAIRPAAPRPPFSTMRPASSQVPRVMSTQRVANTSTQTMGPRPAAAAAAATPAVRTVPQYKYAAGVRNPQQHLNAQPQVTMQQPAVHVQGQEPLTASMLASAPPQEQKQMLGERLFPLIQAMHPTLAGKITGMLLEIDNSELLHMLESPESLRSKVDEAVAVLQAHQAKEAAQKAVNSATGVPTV

[26] = biological target: T4, Polyadenylate-binding protein 1; test: PABP1 MLLE–PAM2 binding inhibitor potency, dose response, biochemical, fluorescence polarization, FITC-PAM2 peptide (AID 602259); type: functional; conditions: read-out: IC50_Mean
[27] = biological target: Paired box protein Pax-8 (Homo sapiens, UniProt Q06710); test: inhibitors of PAX8-driven TPO luciferase reporter, dose response, RMG-I cells, cherry-pick (AID 687027); type: functional, cell-based;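 note: luciferase reporter driven by Pax8 target thyroperoxidase promoter measured by SteadyGlo luminescence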
Chain of Paired box protein Pax-8 (Q06710 whole entry): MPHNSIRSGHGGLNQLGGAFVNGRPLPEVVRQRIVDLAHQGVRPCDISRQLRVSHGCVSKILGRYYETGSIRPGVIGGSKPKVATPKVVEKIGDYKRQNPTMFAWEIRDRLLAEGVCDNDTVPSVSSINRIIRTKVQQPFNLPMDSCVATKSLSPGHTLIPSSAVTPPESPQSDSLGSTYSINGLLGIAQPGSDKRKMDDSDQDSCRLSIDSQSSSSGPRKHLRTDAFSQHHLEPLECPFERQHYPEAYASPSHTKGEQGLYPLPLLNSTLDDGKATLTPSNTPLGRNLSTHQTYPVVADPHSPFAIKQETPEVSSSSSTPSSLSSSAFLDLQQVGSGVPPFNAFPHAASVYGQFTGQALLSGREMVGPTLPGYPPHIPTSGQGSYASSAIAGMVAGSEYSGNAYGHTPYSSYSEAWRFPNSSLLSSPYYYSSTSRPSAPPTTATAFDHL

[28] = A2780 ovarian cancer cell cytotoxicity, dose response, cytotoxicity control, plate reader, dry powder samples (AID 743046); type: functional, cell-based
[29] = NIH:OVCAR-3 ovarian cancer cell cytotoxicity, dose response, PAX8 inhibitor project, plate reader, dry powder samples (AID 743044); type: functional, cell-based
[30] = cytotoxicity in OVCAR8 ovarian cancer cells, dose response, PAX8 project, cell-based, plate reader, dry powder samples (AID 743197); type: functional; conditions: OVCAR-8
[31] = biological target: T5, Calpain-2 catalytic subunit (Sus scrofa, UniProt P43367); test: pig calpain II inhibitor potency, dose response, biochemical, fluorogenic peptide substrate (AID 1420); type: functional
T5 sequence (P43367 whole entry): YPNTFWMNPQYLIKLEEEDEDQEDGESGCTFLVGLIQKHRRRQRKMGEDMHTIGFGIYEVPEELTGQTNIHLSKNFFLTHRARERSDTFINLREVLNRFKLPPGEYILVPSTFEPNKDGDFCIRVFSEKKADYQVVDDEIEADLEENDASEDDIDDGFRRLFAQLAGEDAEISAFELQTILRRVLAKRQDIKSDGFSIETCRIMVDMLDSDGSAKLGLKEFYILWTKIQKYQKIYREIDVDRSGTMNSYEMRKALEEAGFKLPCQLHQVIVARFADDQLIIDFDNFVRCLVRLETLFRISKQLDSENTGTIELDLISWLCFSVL

[32] = IGROV1 ovarian cancer cell cytotoxicity, dose response, PAX8 inhibitor project, plate reader, dry powder samples (AID 743043); type: functional, cell-based; conditions: IGROV-1
[33] = biological target: Prothrombin (Homo sapiens, UniProt P00734); test: Thrombin 1536 HTS Dose Response Confirmation. [Related pubchem assays: 1046 (Thrombin 1536 HTS; hits were confirmed in this assay)]; type: functional
[34] = human group III sPLA2 inhibitors, dose response, biochemical, QFRET, IC50 (AID 743457);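 note: green fluorescence rise as the enzyme cleaves BODIPY PC-A2 in liposomes; potency for inhibition of the enzyme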
[35] = inhibitors of firefly luciferase expression or activity, dose response, H4 neuroglioma cells, luminescence (AID 1990); type: functional, cell-based
[36] = Luminescence Cell-Based Dose Response HTS to Identify Inhibitors of 5'UTR Stem-Loop Driven Prion Protein mRNA Translation in H4 Neuroglioblastoma Cells. [Related pubchem assays: 1827 (Project Summary), 1813 (Primary HTS)]; type: functional
[37] = inhibitors of SNCA 5'UTR-driven reporter translation, confirmation, H4 neuroglioma cells, luminescence (AID 1988); type: functional, cell-based

T1 sequence (P49327 whole entry, the tested form may be a part): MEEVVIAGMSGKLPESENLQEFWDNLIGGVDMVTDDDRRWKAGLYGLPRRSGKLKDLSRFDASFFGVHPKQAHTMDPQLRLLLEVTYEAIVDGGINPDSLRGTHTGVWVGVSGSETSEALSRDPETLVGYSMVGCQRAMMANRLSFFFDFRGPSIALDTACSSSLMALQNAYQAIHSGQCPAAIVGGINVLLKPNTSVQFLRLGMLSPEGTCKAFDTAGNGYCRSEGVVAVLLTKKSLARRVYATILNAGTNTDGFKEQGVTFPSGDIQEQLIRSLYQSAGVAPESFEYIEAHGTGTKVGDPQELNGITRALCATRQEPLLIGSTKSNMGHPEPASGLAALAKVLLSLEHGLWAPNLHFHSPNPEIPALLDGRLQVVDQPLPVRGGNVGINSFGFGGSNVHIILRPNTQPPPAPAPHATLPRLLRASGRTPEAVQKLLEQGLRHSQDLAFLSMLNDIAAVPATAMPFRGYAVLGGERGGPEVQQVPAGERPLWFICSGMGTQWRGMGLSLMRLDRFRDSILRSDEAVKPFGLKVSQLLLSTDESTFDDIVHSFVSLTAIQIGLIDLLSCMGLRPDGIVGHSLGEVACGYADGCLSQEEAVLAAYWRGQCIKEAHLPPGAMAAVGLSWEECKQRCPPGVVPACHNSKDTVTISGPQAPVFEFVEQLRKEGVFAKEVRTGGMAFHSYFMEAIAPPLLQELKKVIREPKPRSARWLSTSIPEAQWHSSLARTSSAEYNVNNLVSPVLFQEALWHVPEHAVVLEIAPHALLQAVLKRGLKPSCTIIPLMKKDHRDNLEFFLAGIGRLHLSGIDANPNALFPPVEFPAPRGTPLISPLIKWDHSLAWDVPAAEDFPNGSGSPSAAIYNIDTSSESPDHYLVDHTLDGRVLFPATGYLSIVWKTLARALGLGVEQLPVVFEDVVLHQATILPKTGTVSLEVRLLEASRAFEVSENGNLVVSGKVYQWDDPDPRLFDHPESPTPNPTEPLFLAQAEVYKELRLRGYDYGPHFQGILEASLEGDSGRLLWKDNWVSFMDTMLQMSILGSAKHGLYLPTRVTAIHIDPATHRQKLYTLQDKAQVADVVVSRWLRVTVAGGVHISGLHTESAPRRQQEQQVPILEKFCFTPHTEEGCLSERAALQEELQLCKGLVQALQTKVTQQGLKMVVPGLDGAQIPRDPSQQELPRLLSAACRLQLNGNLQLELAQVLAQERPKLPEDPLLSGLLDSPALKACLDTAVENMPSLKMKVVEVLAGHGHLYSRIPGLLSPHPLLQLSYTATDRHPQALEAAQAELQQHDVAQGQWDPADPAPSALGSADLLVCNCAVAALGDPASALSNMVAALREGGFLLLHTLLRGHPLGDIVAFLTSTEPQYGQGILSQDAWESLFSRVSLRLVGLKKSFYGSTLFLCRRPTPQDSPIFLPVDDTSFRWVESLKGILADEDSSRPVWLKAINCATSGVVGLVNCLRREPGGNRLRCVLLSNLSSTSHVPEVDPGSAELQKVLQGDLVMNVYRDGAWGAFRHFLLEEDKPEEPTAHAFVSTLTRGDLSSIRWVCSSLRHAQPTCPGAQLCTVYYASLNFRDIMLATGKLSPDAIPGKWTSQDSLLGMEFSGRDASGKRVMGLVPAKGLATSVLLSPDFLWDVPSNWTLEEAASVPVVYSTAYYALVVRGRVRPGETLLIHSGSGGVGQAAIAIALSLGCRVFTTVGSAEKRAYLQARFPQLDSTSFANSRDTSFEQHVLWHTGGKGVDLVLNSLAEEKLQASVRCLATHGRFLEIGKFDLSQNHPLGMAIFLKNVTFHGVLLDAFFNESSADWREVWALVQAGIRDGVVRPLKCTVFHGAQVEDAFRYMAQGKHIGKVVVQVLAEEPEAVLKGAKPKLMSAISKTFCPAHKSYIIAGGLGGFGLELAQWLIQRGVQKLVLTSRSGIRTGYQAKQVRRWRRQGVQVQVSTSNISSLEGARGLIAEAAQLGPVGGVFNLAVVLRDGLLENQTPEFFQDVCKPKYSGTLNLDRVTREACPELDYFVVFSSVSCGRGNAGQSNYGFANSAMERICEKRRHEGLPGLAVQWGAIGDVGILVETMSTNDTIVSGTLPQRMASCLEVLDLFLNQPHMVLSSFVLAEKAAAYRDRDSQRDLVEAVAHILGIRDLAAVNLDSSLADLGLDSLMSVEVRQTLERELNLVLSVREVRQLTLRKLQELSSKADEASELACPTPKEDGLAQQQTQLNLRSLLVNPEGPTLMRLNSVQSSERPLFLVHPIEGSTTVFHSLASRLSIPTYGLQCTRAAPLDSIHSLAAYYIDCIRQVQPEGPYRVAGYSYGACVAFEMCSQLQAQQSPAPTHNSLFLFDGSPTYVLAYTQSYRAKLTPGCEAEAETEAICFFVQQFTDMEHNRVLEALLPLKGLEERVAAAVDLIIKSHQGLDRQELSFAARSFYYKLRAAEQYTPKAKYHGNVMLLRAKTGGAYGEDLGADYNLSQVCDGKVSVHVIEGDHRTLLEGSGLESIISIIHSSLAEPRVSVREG

Cc1cccc(NS(=O)(=O)c2ccc3[nH]c(=O)cc(C(=O)OC(C)C(=O)Nc4ccc([N+](=O)[O-])cc4)c3c2)c1 (stereo not given)
IC50 [1]: 1.51 µM (active) | IC50 [2]: 3.66 µM (active) | IC50 [3]: > 69.5 µM (inactive)

CCOC(=O)C1CCN(Cc2c(O)ccc3ccccc23)CC1
IC50 [4]: > 50 µM (not active)

COc1ccc(NC(=O)N(C)C[C@H]2Oc3cc(C#CCC(C)C)ccc3S(=O)(=O)N([C@H](C)CO)C[C@H]2C)cc1
AC50 [5]: 1.5 µM (active) | AC50 [6]: 38.3 µM (active) | AC50 [7]: 1.3 µM (active) | AC50 [8]: 1.21 µM (active) | AC50 [9]: 1.7 µM (active)

CN(C)Cc1c(C(=O)N/N=C/c2cccc(OCc3ccc(F)cc3)c2)nnn1-c1nonc1N
EC50 [10]: 45.2 µM (inactive) | EC50 [11]: > 99 µM (inactive)

Cc1cc(C)cc(-n2c(SC(C)C(=O)NCc3ccc4c(c3)OCO4)nc3ccccc3c2=O)c1 (stereo not given)
IC50 [3]: > 69.5 µM (inactive) | IC50 [12]: 18.3 µM (inactive)

CC(C)N1C[C@H](C)[C@@H](CN(C)Cc2ccc(Cl)c(Cl)c2)Oc2c(cccc2-c2nnc(-c3ccncc3)o2)C1=O
AC50 [13]: 0.0624 µM (active)

Cc1cccc(NC2=NC(N)=NC(C)(C)N2)c1
EC50 [14]: < 0.06 µM (active) | EC50 [15]: > 150 µM (not active) | EC50 [16]: 1.26 µM (inconclusive) | EC50 [17]: > 150 µM (not active) | EC50 [18]: 1.48 µM (active) | EC50 [19]: 0.478 µM (active) | EC50 [20]: > 133 µM (inactive)

Cc1nc(-c2ccc(C(=O)N3CCOCC3)cc2)cs1
EC50 [21]: > 50 µM (active) | IC50 [22]: > 109 µM (inactive) | IC50 [23]: > 83.3 µM (inactive)

Cc1ccc(-c2nc(N)s[n+]2-c2ccccc2)cc1
IC50 [4]: 4.91 µM (active) | IC50 [24]: 27.2 µM (inactive) | IC50 [25]: > 66 µM (inactive) | IC50 [26]: > 66 µM (inactive)

CCC(C)NS(=O)(=O)c1ccc(NS(C)(=O)=O)cc1 (stereo not given)
IC50 [22]: > 109 µM (inactive) | IC50 [23]: > 83.3 µM (inactive)

C[C@@H]1CN([C@H](C)CO)C(=O)c2cc(NC(=O)Nc3ccc(C(F)(F)F)cc3)ccc2O[C@@H](C)CCCCO[C@@H]1CN(C)Cc1ccc(Cl)c(Cl)c1
AC50 [27]: 5 µM (active) | AC50 [28]: 39.1 µM (active) | AC50 [29]: 20.7 µM (active) | AC50 [30]: 29.1 µM (active)

O=C(COc1ccc([N+](=O)[O-])cc1)Nc1ccc(CN2CCOCC2)cc1
IC50 [31]: 41.1 µM (not active)

COc1ccc(/C=C/c2c(-c3ccc(OC)cc3)oc3cccnc23)cc1
IC50 [22]: > 109 µM (inactive) | IC50 [23]: > 83.3 µM (inactive)

Cc1ccc(S(=O)(=O)Nc2ccc3c(c2)C(=O)N([C@H](C)CO)C[C@@H](C)[C@@H](CN(C)CC2CCCCC2)OCCCC[C@@H](C)O3)cc1
AC50 [27]: 5.51 µM (active) | AC50 [28]: 38.2 µM (active) | AC50 [29]: 26.5 µM (active) | AC50 [32]: 38.8 µM (active) | AC50 [30]: 40.4 µM (active)

Cc1ccc(C(=O)N2C(CC(=O)Nc3ccc(Cl)cc3)C(=O)NC3CCCCC32)cc1 (stereo not given)
IC50 [33]: 3.25 µM (active)

Cc1cccc(NS(=O)(=O)c2ccc3nc(O)cc(C(=O)OC(C)C(=O)Nc4ccc([N+](=O)[O-])cc4)c3c2)c1 (stereo not given)
IC50 [12]: > 69.5 µM (inactive)

COC[C@H](C)N1C[C@H](C)[C@@H](CN(C)Cc2ccc(Oc3ccccc3)cc2)Oc2c(NC(=O)c3ccncc3)cccc2C1=O
AC50 [13]: 0.00119 µM (active)

CC(C)N1C[C@@H](CN(C)Cc2ccc(Cl)c(Cl)c2)Oc2c(NC(=O)c3ccncc3)cccc2C1=O
AC50 [13]: 0.000485 µM (active)

Cc1cccc(NC(S)=NNC(=O)c2csc(C)c2)c1
IC50 [34]: > 122 µM (inactive)

O=C(Nc1cccc2ccccc12)N1CC=C(c2ccccc2)CC1
EC50 [10]: 53.7 µM (inactive) | EC50 [11]: > 99 µM (inactive)

CC(C)[C@]12O[C@H]1[C@@H]1O[C@]13[C@]1(O[C@H]1C[C@H]1C4=C(CC[C@@]13C)C(=O)OC4)[C@@H]2O [TRIPTOLIDE]
EC50 [35]: < 0.1 µM (active) | EC50 [36]: < 0.1 µM (active) | EC50 [37]: < 0.1 µM (active) | EC50 [20]: < 0.104 µM (active)

C[C@@H]1CN([C@H](C)CO)C(=O)c2ccccc2-c2ccccc2CO[C@@H]1CN(C)Cc1ccc(C(F)(F)F)cc1
AC50 [5]: 3.53 µM (active) | AC50 [6]: 21.5 µM (active) | AC50 [7]: 2.16 µM (active) | AC50 [8]: 1.93 µM (active) | AC50 [9]: 1.82 µM (active)

Cc1ccccc1/N=C/c1cccc(O)c1O
IC50 [4]: 11.2 µM (active)

Cn1nnc(CC[N+](C)(C)C)n1
IC50 [33]: > 50 µM (not active)
